Measurements published in patent US7910573B2, “Crystalline forms of 11β-(4-acetylphenyl)-20,20,21,21,21-pentafluoro-17-hydroxy-19-nor-17α-pregna-4,9-dien-3-one” (Bayer Schering Pharma AG, priority 2006, dated 2011).

How the values were obtained:
Assay type in all cases: physicochemical
[1] = Solid form conversion of the amorphous active ingredient under stress conditions; details: 15 d, 90° C./75% relative humidity
From the text: It can be assumed that such a recrystallization also occurs on storage of the amorphous phase over a lengthy period at relatively low temperatures. Such a conversion is, however, undesired in the finished medicinal form because it may lead to an altered, non-reproducible release of the active ingredient, but may also influence the hardness of the medicinal form.

[2] = Short-term stability on storage at elevated temperature and elevated humidity; details: 70° C.
From the text: This is shown on comparison of the results of the temperature tests, moisture tests and in particular in light exposure tests.
(§1) On use of 11β-(4-acetylphenyl)-20,20,21,21,21-pentafluoro-17-hydroxy-19-nor-17α-pregna-4,9-dien-3-one as active ingredient in pharmaceutical preparations, the profile of impurities is of crucial importance. A compound which occurs on storage of this active ingredient is 11β-(4-acetylphenyl)-20,20,21,21,21-pentafluoro-17-hydroxy-9,10-epoxy-19-nor-10α,17α-pregna-1,4-dien-3-one. The toxicity of this compound is known. The content of this impurity must be below 0.2% until the shelf life of the pharmaceutical formulation expires. […] The amorphous solid is therefore unsuitable without stabilization for use in a medicinal product. With polymorph I, however, the increase in this critical impurity is virtually zero. Elaborate stabilization on use of polymorph I is therefore no longer necessary. The formation of the abovementioned epoxy impurity on storage of amorphous 11β-(4-acetylphenyl)-20,20,21,21,21-pentafluoro-17-hydroxy-19-nor-17α-pregna-4,9-dien-3-one at a temperature of 70° C. is 0.6% after only 15 days and as much as 1.1% after 30 days. On the other hand, on storage of polymorph I at the same temperature for 30 days, just 0.1% of the epoxy impurity is detectable.

[3] = Stability on storage under light (20 kLux); details: for decrease in the active ingredient content: initial values 98.4% and 95.4%
From the text: The greater stability of polymorph I is even clearer on storage under light. […] The initial values were 98.4% and 95.4% here too.
as §1

[4] = Short-term stability on storage at elevated temperature and elevated humidity
[5] = Solubility in a water/ethanol mixture; details: proportion of water 20 wt %
From the text: This dependency is depicted in FIG. 7. […] The required proportion of water is distinctly higher for other systems, so that the displacement can be carried out only at high dilution and thus with an inadequate space yield.

[6] = 50° C., 75% rel. humidity, 15 days
[7] = 50° C., 75% rel. humidity, 30 days
[8] = 50° C., no rel. humidity given, 15 days, initial content 98.4% or 95.4%
[9] = 50° C., no rel. humidity given, 30 days, initial content 98.4% or 95.4%
[10] = 70° C., 75% rel. humidity, 15 days
[11] = 70° C., 75% rel. humidity, 30 days
[12] = 70° C., no rel. humidity given, 15 days
[13] = 70° C., no rel. humidity given, 30 days
[14] = 90° C., 75% rel. humidity, 15 days
[15] = 90° C., no rel. humidity given, 15 days

Row | Compound | change of solid form on storage [1] | formation of the epoxy impurity on storage ([2]; 15 days) | formation of the epoxy impurity on storage ([2]; 30 days) | increase in the epoxy impurity ([3]; 20 kLux, 42 h) | increase in the epoxy impurity ([3]; 20 kLux, 66 h) | decrease in the active ingredient content ([3]; storage under 20 kLux for 42 h) | decrease in the active ingredient content ([3]; storage under 20 kLux for 66 h) | decrease in the active ingredient content [4, 6] | decrease in the active ingredient content [4, 7] | decrease in the active ingredient content [4, 8] | decrease in the active ingredient content [4, 9] | decrease in the active ingredient content [4, 10] | decrease in the active ingredient content [4, 11] | decrease in the active ingredient content [4, 12] | decrease in the active ingredient content [4, 13] | decrease in the active ingredient content [4, 14] | decrease in the active ingredient content [4, 15] | solubility relative to the solubility in pure ethanol [5] | increase in the epoxy impurity ([3]; storage under stress conditions and under light)
1 | CC(=O)c1ccc([C@H]2C[C@@]3(C)[C@@H](CC[C@@]3(O)C(F)(F)C(F)(F)F)[C@@H]3CCC4=CC(=O)CCC4=C32)cc1 [amorphous, 11β-(4-acetylphenyl)-20,20,21,21,21-pentafluoro-17-hydroxy-19-nor-17α-pregna-4,9-dien-3-one] | Partial recrystallization to give polymorph I | 0.6% | 1.1% | 8.4% | 11.2% | −34% | −42% | −2.8% | −3.3% | −2.9% | −5.1% | −13.5% | −17.4% | −10.2% | −17.3% | −31.7% | −32.6% | – | –
2 | CC(=O)c1ccc([C@H]2C[C@@]3(C)[C@@H](CC[C@@]3(O)C(F)(F)C(F)(F)F)[C@@H]3CCC4=CC(=O)CCC4=C32)cc1 [11β-(4-Acetylphenyl)-20,20,21,21,21-pentafluoro-17-hydroxy-19-nor-17α-pregna-4,9-dien-3-one] | – | – | – | – | – | – | – | – | – | – | – | – | – | – | – | – | – | one-hundredth | –
3 | CC(=O)c1ccc([C@H]2C[C@@]3(C)[C@@H](CC[C@@]3(O)C(F)(F)C(F)(F)F)[C@@H]3CCC4=CC(=O)CCC4=C32)cc1 [polymorph I, 11β-(4-acetylphenyl)-20,20,21,21,21-pentafluoro-17-hydroxy-19-nor-17α-pregna-4,9-dien-3-one] | – | – | 0.1% | 0.1% | 0.1% | −0.2% | −0.4% | 0% | −0.1% | 0% | −0.3% | −0.1% | −0.2% | −1.5% | −3.5% | −0.2% | −3.6% | – | below 0.2%
